In US11046680B1, “Heteroaryl-substituted triazoles as APJ receptor agonists” (priority 2016, dated 2021):

Target: human APJ receptor (Homo sapiens (Human), UniProt P35414)
Assay: biochemical
Type: biochemical
Conditions: [35S]GTPγS binding, CHO membranes expressing human APJ receptor; read-out: Activity hAPJ SPA EC50 IP
How it was run: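 Membranes of a stable CHO line carrying human APJ (pFLAG-CMV-3) were used in a GTPγS binding format; buffer GDP, MgCl2 and NaCl were optimized, and plates were read after 90 min at RT.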

human APJ receptor, sequence (P35414 whole entry): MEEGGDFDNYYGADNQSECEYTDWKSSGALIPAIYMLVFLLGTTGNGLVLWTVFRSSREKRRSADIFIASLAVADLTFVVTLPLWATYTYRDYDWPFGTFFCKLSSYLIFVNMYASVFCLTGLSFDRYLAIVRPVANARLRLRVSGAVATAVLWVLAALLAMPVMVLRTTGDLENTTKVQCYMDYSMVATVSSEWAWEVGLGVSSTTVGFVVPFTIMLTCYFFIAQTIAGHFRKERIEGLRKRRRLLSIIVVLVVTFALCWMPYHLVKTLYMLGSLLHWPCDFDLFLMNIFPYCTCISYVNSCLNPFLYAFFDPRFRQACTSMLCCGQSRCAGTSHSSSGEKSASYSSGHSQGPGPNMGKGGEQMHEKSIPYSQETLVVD

Row | SMILES | EC50 [nM]
1 | COc1cccc(OC)c1-n1c(NS(=O)(=O)[C@H](C)Cc2ncc(F)cn2)nnc1-c1ccn(C)c1 (single isomer, unassigned) [Example 34.0, (R)-N-(4-(2,6-dimethoxyphenyl)-5-(1-methyl-1H-pyrrol-3-yl)-4H-1,2,4-triazol-3-yl)-1-(5-fluoropyrimidin-2-yl)propane-2-sulfonamide or (S)-N-(4-(2,6-dimethoxyphenyl)-5-(1-methyl-1H-pyrrol-3-yl)-4H-1,2,4-triazol-3-yl)-1-(5-fluoropyrimidin-2-yl)propane-2-sulfonamide] | 4.5
2 | COc1cnc([C@@H](C)[C@H](C)S(=O)(=O)Nc2nnc(-c3ccn(C)n3)n2-c2c(OC)ncnc2OC)nc1 [Example 296.0, (2S,3R)-N-(4-(4,6-dimethoxy-5-pyrimidinyl)-5-(1-methyl-1H-pyrazol-3-yl)-4H-1,2,4-triazol-3-yl)-3-(5-methoxy-2-pyrimidinyl)-2-butanesulfonamide] | 2.7
3 | COc1cccc(OC)c1-n1c(NS(=O)(=O)[C@@H](C)Cc2ncc(C)cn2)nnc1-c1nc(C)cs1 (single isomer, unassigned) [Example 9.0, (2S)-N-(4-(2,6-dimethoxyphenyl)-5-(4-methyl-1,3-thiazol-2-yl)-4H-1,2,4-triazol-3-yl)-1-(5-methyl-2-pyrimidinyl)-2-propanesulfonamide or (2R)-N-(4-(2,6-dimethoxyphenyl)-5-(4-methyl-1,3-thiazol-2-yl)-4H-1,2,4-triazol-3-yl)-1-(5-methyl-2-pyrimidinyl)-2-propanesulfonamide] | 11
4 | COc1cccc(OC)c1-n1c(NS(=O)(=O)C[C@H](O)c2ccc(Cl)cc2)nnc1-c1ccn(C)n1 (single isomer, unassigned) [Example 375.0, (R)-2-(4-Chlorophenyl)-N-(4-(2,6-dimethoxyphenyl)-5-(1-methyl-1H-pyrazol-3-yl)-4H-1,2,4-triazol-3-yl)-2-hydroxyethanesulfonamide or (R)-2-(4-chlorophenyl)-N-(4-(2,6-dimethoxyphenyl)-5-(1-methyl-1H-pyrazol-3-yl)-4H-1,2,4-triazol-3-yl)-2-hydroxyethanesulfonamide] | 5.9
5 | COc1cccc(OC)c1-n1c(NS(=O)(=O)[C@@H](C)[C@H](O)c2ncc(C)cn2)nnc1-c1ccn(C(F)F)n1 [Example 218.0, (1R,2S)-N-(5-(1-(difluoromethyl)-1H-pyrazol-3-yl)-4-(2,6-dimethoxyphenyl)-4H-1,2,4-triazol-3-yl)-1-hydroxy-1-(5-methyl-2-pyrimidinyl)-2-propanesulfonamide] | 0.87
6 | COc1cccc(OC)c1-n1c(NS(=O)(=O)[C@@H](C)[C@H](OC)c2ncc(Cl)cn2)nnc1-c1n[nH]c2ccc(C)cc12 [Example 418.0, (1R,25)-1-(5-chloropyrimidin-2-yl)-N-(4-(2,6-dimethoxyphenyl)-5-(5-methyl-1H-indazol-3-yl)-4H-1,2,4-triazol-3-yl)-1-methoxypropane-2-sulfonamide] | 5.5
7 | CCc1csc(-c2nnc(NS(=O)(=O)CCc3ccc(Cl)cc3)n2-c2c(OC)cccc2OC)n1 [Example 152.0, 2-(4-chlorophenyl)-N-(4-(2,6-dimethoxyphenyl)-5-(4-ethylthiazol-2-yl)-4H-1,2,4-triazol-3-yl)ethanesulfonamide] | > 12500
8 | COc1cccc(OC)c1-n1c(NS(=O)(=O)CCN2C(=O)N(C)CC[C@@H]2C)nnc1-c1nc(C)cs1 [Example 13.0, N-(4-(2,6-dimethoxyphenyl)-5-(4-methyl-1,3-thiazol-2-yl)-4H-1,2,4-triazol-3-yl)-2-((6S)-3,6-dimethyl-2-oxotetrahydro-1(2H)-pyrimidinyl)ethanesulfonamide] | 2.9
9 | COc1cncc(-c2nnc(NS(=O)(=O)[C@@H](C)[C@H](OC)c3cnc(C)cn3)n2-c2c(OC)cccc2OC)n1 [Example 327.0, (1R,2S)-N-(4-(2,6-dimethoxyphenyl)-5-(6-methoxy-2-pyrazinyl)-4H-1,2,4-triazol-3-yl)-1-methoxy-1-(5-methyl-2-pyrazinyl)-2-propanesulfonamide] | 4
10 | CCO[C@@H](c1ncc(Cl)cn1)[C@H](C)S(=O)(=O)Nc1nnc(-c2ccn(C)n2)n1-c1c(OC)cccc1OC (single isomer, unassigned) [Example 353.0, (1S,2S)-1-(5-chloropyrimidin-2-yl)-N-(4-(2,6-dimethoxyphenyl)-5-(1-methyl-1H-pyrazol-3-yl)-4H-1,2,4-triazol-3-yl)-1-ethoxypropane-2-sulfonamide or (1R,2R)-1-(5-chloropyrimidin-2-yl)-N-(4-(2,6-dimethoxyphenyl)-5-(1-methyl-1H-pyrazol-3-yl)-4H-1,2,4-triazol-3-yl)-1-ethoxypropane-2-sulfonamide] | 0.22
11 | COCC1(n2c(NS(=O)(=O)[C@@H](C)[C@H](C)c3cnc(OC)cn3)nnc2-c2ccn(C)n2)CC1 [Example 454.0, (2S,3R)-N-(4-(1-(methoxymethyl)cyclopropyl)-5-(1-methyl-1H-pyrazol-3-yl)-4H-1,2,4-triazol-3-yl)-3-(5-methoxy-2-pyrazinyl)-2-butanesulfonamide] | 56
12 | COc1cccc(OC)c1-n1c(NS(=O)(=O)[C@H](C)Cc2ccc(C#N)cn2)nnc1-c1nc(C)cs1 (single isomer, unassigned) [Example 12.0, (2R)-1-(5-Cyano-2-pyridinyl)-N-(4-(2,6-dimethoxyphenyl)-5-(4-methyl-1,3-thiazol-2-yl)-4H-1,2,4-triazol-3-yl)-2-propanesulfonamide or (2S)-1-(5-cyano-2-pyridinyl)-N-(4-(2,6-dimethoxyphenyl)-5-(4-methyl-1,3-thiazol-2-yl)-4H-1,2,4-triazol-3-yl)-2-propanesulfonamide] | 9.4
13 | COc1cccc(OC)c1-n1c(NS(=O)(=O)CCc2ncc(F)cn2)nnc1-c1nc(C)cs1 [Example 94.0, N-(4-(2,6-dimethoxyphenyl)-5-(4-methylthiazol-2-yl)-4H-1,2,4-triazol-3-yl)-2-(5-fluoropyrimidin-2-yl)ethanesulfonamide] | 2.7
14 | COc1ncnc(OC)c1-n1c(NS(=O)(=O)[C@@H](C)[C@H](C)c2ncc(Cl)cn2)nnc1-c1ccn(C)n1 [Example 294.0, (2S,3R)-3-(5-chloro-2-pyrimidinyl)-N-(4-(4,6-dimethoxy-5-pyrimidinyl)-5-(1-methyl-1H-pyrazol-3-yl)-4H-1,2,4-triazol-3-yl)-2-butanesulfonamide] | 0.49
15 | COCc1nc(-c2nnc(NS(=O)(=O)CCc3ccc(Cl)cc3)n2-c2c(OC)cccc2OC)cs1 [Example 146.0] | 97
16 | CO[C@H](c1ncc(C)cn1)[C@H](C)S(=O)(=O)Nc1nnc(-c2ccn(C)n2)n1-c1c(F)cccc1F [Example 233.0, (1R,2S)-N-(4-(2,6-difluorophenyl)-5-(1-methyl-1H-pyrazol-3-yl)-4H-1,2,4-triazol-3-yl)-1-methoxy-1-(5-methyl-2-pyrimidinyl)-2-propanesulfonamide] | 17
